Data published in ChEMBL document CHEMBL1148902, “A cytotoxic cyclic heptapeptide from the seeds of Annona cherimola” (J Nat Prod, 2004).
Where a SMILES comes first, the peptide text is derived from it.

Tested on: KB
Assay: Cytotoxicity against human KB cells
Type: functional, cell-based

| Structure (SMILES) | IC50 [nM] |
| --- | --- |
| COc1cccc2c1C(=O)c1c(O)c3c(c(O)c1C2=O)C[C@@](O)(C(=O)CO)C[C@@H]3O[C@H]1C[C@H](N)[C@H](O)[C@H](C)O1 [DOXORUBICIN] | 20 |
| CC[C@H](C)[C@@H]1NC(=O)[C@H](Cc2c[nH]c3ccccc23)NC(=O)[C@H](C)NC(=O)[C@H](C)NC(=O)CNC(=O)[C@@H]2CCCN2C(=O)[C@@H]2CCCN2C1=O [CHERIMOLACYCLOPEPTIDE C] (cyclo(AAWIPPG)) | 72 |
